These results are taken from patent publication US12600709B2, “Nonpeptide somatostatin type 5 receptor agonists and uses thereof” (Crinetics Pharmaceuticals, Inc., priority 2019, dated 2026).

The target of test [1] is T1, human somatostatin receptor subtype 5 (Homo sapiens, UniProt P35346).
T1 construct: expressed in transfected cells
Description: cAMP assay for SST5R (inhibition of cAMP in CHO-K1 cells). It counts as cell-based. The conditions noted are these: for EC50: inhibition of cAMP via human SST5 receptor, read-out: SST5 potency. The essentials: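 CHO-K1 cells stably expressing human SSTR5 were treated 20 min at 37 °C with compounds plus 1.6 μM NKH477 in HBSS, 0.5 mM HEPES pH 7.4, 0.1% BSA, 0.2 mM IBMX. Lysate cAMP measured by HTRF against a standard curve; EC50 from cAMP-versus-concentration plots.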
Background: cAMP levels reflect the balance of adenylyl cyclase and phosphodiesterase activity.

In test [2] the target is T2, human somatostatin receptor subtype 2 (Homo sapiens, UniProt P30874).
T2 construct: expressed in transfected cells
T2 sequence (P30874 whole entry): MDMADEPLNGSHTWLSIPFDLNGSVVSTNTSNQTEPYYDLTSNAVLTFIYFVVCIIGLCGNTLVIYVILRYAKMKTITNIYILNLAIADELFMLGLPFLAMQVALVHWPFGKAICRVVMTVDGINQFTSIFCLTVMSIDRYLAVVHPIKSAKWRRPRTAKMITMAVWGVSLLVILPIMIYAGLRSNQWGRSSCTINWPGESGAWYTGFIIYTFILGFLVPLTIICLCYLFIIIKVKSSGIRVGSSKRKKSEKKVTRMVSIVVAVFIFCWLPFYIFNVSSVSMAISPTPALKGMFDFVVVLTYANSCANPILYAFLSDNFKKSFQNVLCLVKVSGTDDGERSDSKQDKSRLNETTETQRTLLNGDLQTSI
Kind of test: cAMP assay for SST2R (inhibition of cAMP in CHO-K1 cells). It counts as cell-based. The settings on record: Table B; inhibition of cAMP via human SST2 receptor; read-out: SST2 potency. The essentials:
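CHO-K1 cells stably expressing human SSTR2, plated 4 days prior, treated 20 min at 37° C with 1.6 μM NKH477 plus compound dilutions in HBSS/HEPES pH 7.4/0.1% BSA/0.2 mM IBMX. Lysate cAMP measured by HTRF against standard curve; EC50 from concentration-response.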

Setting [3] is: Table B, class symbols, SST5 receptor over SST2 receptor.
The mark [4] stands for this setting: Table B, numeric values for comparison compounds.

The structures appear in SMILES notation. Read-outs that look alike come from different tables or passages of the source.

T1 sequence (P35346 whole entry): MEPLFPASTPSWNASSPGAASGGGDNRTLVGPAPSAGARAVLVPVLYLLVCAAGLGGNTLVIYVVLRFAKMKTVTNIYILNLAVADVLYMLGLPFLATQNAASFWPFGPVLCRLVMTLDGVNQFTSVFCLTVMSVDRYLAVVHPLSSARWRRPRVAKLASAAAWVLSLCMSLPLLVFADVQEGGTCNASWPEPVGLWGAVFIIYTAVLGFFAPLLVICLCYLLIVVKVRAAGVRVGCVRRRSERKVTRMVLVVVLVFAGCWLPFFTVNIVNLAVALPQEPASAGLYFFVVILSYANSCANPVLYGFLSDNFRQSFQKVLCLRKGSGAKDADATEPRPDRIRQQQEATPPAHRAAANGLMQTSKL

Regarding `C[C@]1(N)CCN(c2c(C(=O)NC3CCCCCC3)ccnc2-c2cc(F)cc(F)c2)C1` [3-6, 3-[(3S)-3-amino-3-methylpyrrolidin-1-yl]-N-cycloheptyl-2-(3,5-difluorophenyl)pyridine-4-carboxamide], the EC50 in test [1] (Table A) is less than 10 nM; in test [1] (Table B), less than 10 nM; in test [2], more than 1000 nM. In test [1] (setting [3]), the “Fold selectivity for SST5 vs SST2” value is listed as “+++ (+++=>500)”.

In the case of `C[C@H](NC(=O)c1ncc(Cl)c(-c2cc(F)cc(F)c2)c1N1CC[C@](C)(N)C1)C1CC1` [4-1, 3-[(3S)-3-amino-3-methylpyrrolidin-1-yl]-5-chloro-N-[(1S)-1-cyclopropylethyl]-4-(3,5-difluorophenyl)pyridine-2-carboxamide], the EC50 in test [1] (Table A) is less than 10 nM; in test [1] (Table B), less than 10 nM; in test [2], more than 1000 nM. Besides, the “Fold selectivity for SST5 vs SST2” value in test [1] (setting [3]) is “+++ (+++=>500)”.

For `Cc1cc(C)cc(NC(=O)c2cncc(-c3cc(C)cc(C)c3)c2N2CCC(CN)C2)c1` (centres unmarked) [4-(3-(aminomethyl)pyrrolidin-1-yl)-N,5-bis(3,5-dimethylphenyl)nicotinamide, reference compound], the EC50 in test [1] (Table B) and in test [2] was less than 10 nM in each case. Moreover, the “Fold selectivity for SST5 vs SST2” value in test [1] (setting [4]) is reported as 0.084.

Take `Cc1cc(C)cc(-c2cncc(NC(=O)c3ccc(F)c(Cl)c3)c2N2CCC(CN)C2)c1` (centres unmarked) [N-(4-(3-(aminomethyl)pyrrolidin-1-yl)-5-(3,5-dimethylphenyl)pyridin-3-yl)-3-chloro-4-fluorobenzamide, reference compound]: the EC50 is more than 1000 nM in test [1] (Table B) and less than 10 nM in test [2]. Also, in test [1] (setting [4]), the “Fold selectivity for SST5 vs SST2” value stood at 0.0055.
